Laboratory results as given in US7304174B2, “CaSR antagonist” (Japan Tobacco Inc., priority 2003, dated 2007).

These molecules were tested against T1, human calcium receptor (Homo sapiens, UniProt P41180) (assay: Evaluation of antagonistic action on calcium receptor using reporter gene (luciferase)). Conditions: transformed rat adrenal derived cells, 5 mM calcium chloride, culture 4 hrs, luciferase activity; read-out: Reporter gene assay (IC50, concentration showing 50% inhibitory rate).
T1 construct: expressed in transfected cells; host or cells: cell strain derived from rat adrenal, co-transformed with luciferase cDNA
T1 sequence (P41180 20-1078): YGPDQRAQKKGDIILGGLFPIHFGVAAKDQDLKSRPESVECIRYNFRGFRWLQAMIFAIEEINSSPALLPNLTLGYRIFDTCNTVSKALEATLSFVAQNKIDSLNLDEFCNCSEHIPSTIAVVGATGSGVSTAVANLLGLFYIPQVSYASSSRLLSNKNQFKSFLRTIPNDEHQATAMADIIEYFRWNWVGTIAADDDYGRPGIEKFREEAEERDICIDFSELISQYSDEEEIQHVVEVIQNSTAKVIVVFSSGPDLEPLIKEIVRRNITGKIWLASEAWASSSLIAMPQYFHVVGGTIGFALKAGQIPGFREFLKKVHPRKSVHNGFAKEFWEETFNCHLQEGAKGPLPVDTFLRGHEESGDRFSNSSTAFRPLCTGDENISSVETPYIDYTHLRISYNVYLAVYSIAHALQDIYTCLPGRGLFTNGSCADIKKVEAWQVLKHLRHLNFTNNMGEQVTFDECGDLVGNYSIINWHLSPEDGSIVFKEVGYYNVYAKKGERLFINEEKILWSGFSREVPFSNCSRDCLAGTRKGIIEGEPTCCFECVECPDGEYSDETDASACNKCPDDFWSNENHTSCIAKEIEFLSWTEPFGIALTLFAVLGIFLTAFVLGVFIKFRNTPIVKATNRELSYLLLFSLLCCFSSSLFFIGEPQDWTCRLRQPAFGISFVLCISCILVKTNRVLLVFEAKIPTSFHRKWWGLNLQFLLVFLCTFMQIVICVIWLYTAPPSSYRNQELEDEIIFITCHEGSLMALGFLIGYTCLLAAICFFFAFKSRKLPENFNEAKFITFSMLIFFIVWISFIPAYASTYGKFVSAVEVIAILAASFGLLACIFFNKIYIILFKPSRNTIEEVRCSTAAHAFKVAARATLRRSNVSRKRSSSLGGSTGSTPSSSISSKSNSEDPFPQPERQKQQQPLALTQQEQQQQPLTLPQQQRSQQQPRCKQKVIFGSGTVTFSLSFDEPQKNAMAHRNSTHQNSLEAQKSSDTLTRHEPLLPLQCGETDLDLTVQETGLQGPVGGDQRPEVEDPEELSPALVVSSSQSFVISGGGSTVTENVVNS
Format: cell-based
Method in brief: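 Rat adrenal-derived cells transfected with luciferase and human calcium receptor cDNA, in F12 with 0.5% dialyzed horse serum and 0.25% dialyzed fetal bovine serum. Luciferase luminescence gave % inhibition vs control and blank; IC50 at 50% inhibition.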

SMILES	IC50 [µM]
Cc1cc(C(=O)O)cc(C)c1-c1ccccc1[C@@H](C)OC[C@H](O)CNC(C)(C)Cc1ccc2ccccc2c1 [Example 1-75, 2,6-dimethyl-2′-[1-[(2R)-3-[[1-(naphthalen-2-yl)-2-methylpropan-2-yl]amino]-2-hydroxypropoxy]ethyl]biphenyl-4-carboxylic acid]	0.012
Cc1cc(-c2ccccc2[C@@H](C)OC[C@H](O)CNC(C)(C)Cc2cccc(Cl)c2)ccc1C(=O)O [Example 1-60, 2′-[1-[(2R)-3-[[1-(3-chlorophenyl)-2-methylpropan-2-yl]amino]-2-hydroxypropoxy]ethyl]-3-methylbiphenyl-4-carboxylic acid]	0.096
Cc1cc(C(=O)O)cc(-c2ccccc2[C@@H](C)OC[C@H](O)CNC(C)(C)Cc2ccc3ccccc3c2)c1 [Example 1-9, 3-methyl-2′-[1-[(2R)-3-[[1-(naphthalen-2-yl)-2-methylpropan-2-yl]amino]-2-hydroxypropoxy]ethyl]biphenyl-5-carboxylic acid]	0.016
COc1ccc(CC(C)(C)NC[C@@H](O)CO[C@H](C)c2ccccc2-c2ccc(C(=O)O)c(C(F)(F)F)c2)c(F)c1 [Example 1-29, 2′-[1-[(2R)-3-[[1-(2-fluoro-4-methoxyphenyl)-2-methylpropan-2-yl]amino]-2-hydroxypropoxy]ethyl]-3-(trifluoromethyl)biphenyl-4-carboxylic acid]	0.082
C[C@@H](OC[C@H](O)CNC(C)(C)Cc1ccc2ccccc2c1)c1ccccc1-c1ccc(C(=O)O)c([N+](=O)[O-])c1 [Example 1-69, 2′-[1-[(2R)-3-[[1-(naphthalen-2-yl)-2-methylpropan-2-yl]amino]-2-hydroxypropoxy]ethyl]-3-nitrobiphenyl-4-carboxylic acid]	0.002
Cc1ccc(CC(C)(C)NC[C@@H](O)CO[C@H](C)c2ccccc2Oc2ccc(C(=O)O)cc2[N+](=O)[O-])cc1F [Example 2-28, 4-[2-[1-[(2R)-3-[[1-(3-fluoro-4-methylphenyl)-2-methylpropan-2-yl]amino]-2-hydroxypropoxy]ethyl]phenoxy]-3-nitrobenzoic acid]	0.003
Cc1cc(-c2ccccc2[C@@H](C)OC[C@H](O)CNC(C)(C)Cc2ccc3ccccc3c2)ccc1C(=O)O [Example 1-12, 2′-[1-[(2R)-3-[[1-(naphthalen-2-yl)-2-methylpropan-2-yl]amino]-2-hydroxypropoxy]ethyl]-3-methylbiphenyl-4-carboxylic acid]	0.013
CCCc1cc(-c2ccccc2[C@@H](C)OC[C@H](O)CNC(C)(C)Cc2ccc3ccccc3c2)ccc1C(=O)O [Example 1-36, 2′-[1-[(2R)-3-[[1-(naphthalen-2-yl)-2-methylpropan-2-yl]amino]-2-hydroxypropoxy]ethyl]-3-propylbiphenyl-4-carboxylic acid]	0.002
COc1cc(CC(C)(C)NC[C@@H](O)CO[C@H](C)c2ccccc2-c2ccc(C(=O)O)c(C)c2)ccc1Cl [Example 1-23, 2′-[1-[(2R)-3-[[1-(4-chloro-3-methoxyphenyl)-2-methylpropan-2-yl]amino]-2-hydroxypropoxy]ethyl]-3-methylbiphenyl-4-carboxylic acid]	0.016
Cc1cc(C(=O)O)ccc1-c1ccccc1[C@@H](C)OC[C@H](O)CNC(C)(C)Cc1ccc2ccccc2c1 [Example 1-54, 2-methyl-2′-[1-[(2R)-3-[[1-(naphthalen-2-yl)-2-methylpropan-2-yl]amino]-2-hydroxypropoxy]ethyl]biphenyl-4-carboxylic acid]	0.023
C[C@@H](OC[C@H](O)CNC(C)(C)Cc1ccc2ccccc2c1)c1ccccc1-c1ccc(C(=O)O)cc1F [Example 1-62, 2-fluoro-2′-[1-[(2R)-3-[[1-(naphthalen-2-yl)-2-methylpropan-2-yl]amino]-2-hydroxypropoxy]ethyl]biphenyl-4-carboxylic acid]	0.008
Cc1ccc(CC(C)(C)NC[C@@H](O)CO[C@H](C)c2ccccc2-c2cc(C)c(C(=O)O)c(C)c2)cc1F [Example 1-43, 2′-[1-[(2R)-3-[[1-(3-fluoro-4-methylphenyl)-2-methylpropan-2-yl]amino]-2-hydroxypropoxy]ethyl]-3,5-dimethylbiphenyl-4-carboxylic acid]	0.016
COC(=O)c1ccc(Oc2ccccc2C(C)OC[C@H](O)CNC(C)(C)Cc2ccc3ccccc3c2)cc1 (stereo partly drawn) [Example 2-3, methyl 4-[2-[1-[(2R)-3-[[1-(naphthalen-2-yl)-2-methylpropan-2-yl]amino]-2-hydroxypropoxy]ethyl]phenoxy]benzoate]	0.071
CC(OC[C@H](O)CNC(C)(C)Cc1ccc2ccccc2c1)c1ccccc1[S+]([O-])c1ccc(C(=O)O)cc1 (stereo partly drawn) [Example 2-17, 4-[2-[1-[(2R)-3-[[1-(naphthalen-2-yl)-2-methylpropan-2-yl]amino]-2-hydroxypropoxy]ethyl]phenylsulfinyl]benzoic acid]	0.148
C[C@@H](OC[C@H](O)CNC(C)(C)Cc1ccc(Cl)c(Cl)c1)c1ccccc1-c1ccc(C(=O)O)cc1F [Example 1-67, 2′-[1-[(2R)-3-[[1-(3,4-dichlorophenyl)-2-methylpropan-2-yl]amino]-2-hydroxypropoxy]ethyl]-2-fluorobiphenyl-4-carboxylic acid]	0.019
CC(C)c1cc(-c2ccccc2[C@@H](C)OC[C@H](O)CNC(C)(C)Cc2ccc(Cl)c(F)c2)ccc1C(=O)O [Example 1-52, 2′-[1-[(2R)-3-[[1-(4-chloro-3-fluorophenyl)-2-methylpropan-2-yl]amino]-2-hydroxypropoxy]ethyl]-3-isopropylbiphenyl-4-carboxylic acid]	0.003
Cc1ccc(CC(C)(C)NC[C@@H](O)CO[C@H](C)c2ccccc2-c2cc3c(c(C(=O)O)c2)OCC3)cc1F [Example 1-78, 2,3-dihydro-5-[2-[1-[(2R)-3-[[1-(3-fluoro-4-methylphenyl)-2-methylpropan-2-yl]amino]-2-hydroxypropoxy]ethyl]phenyl]benzofuran-7-carboxylic acid]	0.02
Cc1ccc(CC(C)(C)NC[C@@H](O)CO[C@H](C)c2ccccc2OCc2cccc(C(=O)O)c2)cc1F [Example 2-23, 3-[[2-[1-[(2R)-3-[[1-(3-fluoro-4-methylphenyl)-2-methylpropan-2-yl]amino]-2-hydroxypropoxy]ethyl]phenoxy]methyl]benzoic acid]	0.027
Cc1ccc(CC(C)(C)NC[C@@H](O)CO[C@H](C)c2ccccc2-c2ccc(C(=O)O)c(CC(C)C)c2)cc1F [Example 1-46, 2′-[1-[(2R)-3-[[1-(3-fluoro-4-methylphenyl)-2-methylpropan-2-yl]amino]-2-hydroxypropoxy]ethyl]-3-isobutylbiphenyl-4-carboxylic acid]	0.003
CC(OC[C@H](O)CNC(C)(C)Cc1ccc2ccccc2c1)c1ccccc1Sc1cccc(C(=O)O)c1 (stereo partly drawn) [Example 2-10, 3-[2-[1-[(2R)-3-[[1-(naphthalen-2-yl)-2-methylpropan-2-yl]amino]-2-hydroxypropoxy]ethyl]phenylthio]benzoic acid]	0.027
Cc1ccc(CC(C)(C)NC[C@@H](O)CO[C@H](C)c2ccccc2Oc2ccc(C(=O)O)cc2C(F)(F)F)cc1F [Example 2-33, 4-[2-[1-[(2R)-3-[[1-(3-fluoro-4-methylphenyl)-2-methylpropan-2-yl]amino]-2-hydroxypropoxy]ethyl]phenoxy]-3-trifluoromethylbenzoic acid]	0.002
C[C@@H](OC[C@H](O)CNC(C)(C)Cc1ccc(Cl)cc1F)c1ccccc1-c1ccc(C(=O)O)c(C(C)(C)C)c1 [Example 1-99, 2′-[1-[(2R)-3-[[1-(4-chloro-2-fluorophenyl)-2-methylpropan-2-yl]amino]-2-hydroxypropoxy]ethyl]-3-t-butylbiphenyl-4-carboxylic acid]	0.023
CC(C)(Cc1ccc2ccccc2c1)NC[C@@H](O)COC(c1ccccc1-c1ccc(C(=O)O)cc1F)C1CC1 (stereo partly drawn) [Example 1-65, 2′-[(cyclopropyl)[(2R)-3-[[1-(naphthalen-2-yl)-2-methylpropan-2-yl]amino]-2-hydroxypropoxy]methyl]-2-fluorobiphenyl-4-carboxylic acid]	0.016
Cc1cc(-c2ccccc2[C@@H](C)OC[C@H](O)CNC(C)(C)Cc2ccc3ccccc3c2)ccc1C(=O)O [Example 1-55, 3-methyl-2′-[1-[(2R)-3-[[1-(naphthalen-2-yl)-2-methylpropan-2-yl]amino]-2-hydroxypropoxy]ethyl]biphenyl-4-carboxylic acid]	0.01
